Series [1] deals with T1, WT CaFADS (Corynebacterium ammoniagenes, UniProt Q59263).
T1 construct: made in house; host or cells: Escherichia coli
The conditions noted are these: cited from earlier work.

A further series deals with T2, P56W CaFADS (Corynebacterium ammoniagenes, UniProt Q59263, P56W).
T2 construct: made in house; host or cells: E. coli BL21(DE3)
The series can be described thus: Isothermal titration calorimetry (ITC) of ligand binding at the FMNAT site. To be noted: for -TΔS / ΔH / ΔG: P56W CaFADS, 20 mM PIPES. For orientation: In ITC the heat of successive injections is recorded.

The next series concerns the target T3, L98A CaFADS (Corynebacterium ammoniagenes, UniProt Q59263, L98A).
T3 construct: made in house; host or cells: E. coli BL21(DE3)
Described as above. To be noted: 20 mM PIPES.

A further series deals with T4, P58W CaFADS (Corynebacterium ammoniagenes, UniProt Q59263, P58W).
T4 construct: made in house; host or cells: E. coli BL21(DE3)
The series is described as above. The conditions noted are these: 20 mM PIPES.

The target in series [2] is T1, WT CaFADS. The description is as above. To be noted: 20 mM PIPES.
The next series concerns the target T5, L98K CaFADS (Corynebacterium ammoniagenes, UniProt Q59263, L98K).
T5 construct: made in house; host or cells: E. coli BL21(DE3)
The series is described as above. The conditions noted are these: 20 mM PIPES, pH 7.0, no MgCl2.

The next series deals with T6, P56A/P58A CaFADS (Corynebacterium ammoniagenes, UniProt Q59263, P56A/P58A).
T6 construct: made in house; host or cells: E. coli BL21(DE3)
Described as above. To be noted: 20 mM PIPES.

Another series addresses T7, L98W CaFADS (Corynebacterium ammoniagenes, UniProt Q59263, L98W).
T7 construct: made in house; host or cells: E. coli BL21(DE3)
The series is described as above. The conditions noted are these: 20 mM PIPES.

Series [3] concerns CaFADS variants. The series can be described thus: Difference spectroscopy of flavin binding at the FMNAT site. Set-up: species or system Corynebacterium ammoniagenes. The conditions noted are these: all variants, 20 mM PIPES, 10 mM MgCl2, pH 7.0, 25 °C. As to the method:
Spectroscopic measurements were carried out following previously established conditions and protocols. UV–visible absorption spectra were recorded in a Cary 100 spectrophotometer (Agilent Technologies, Santa Clara, CA, USA). Experimental extinction coefficients at 279 nm (ε^279) for each variant were determined based on the Gill and von Hippel method. In short, the UV–visible absorbance spectrum of the protein was recorded. Then samples were denatured with guanidinium hydrochloride (6 M in 20 mM sodium phosphate, pH 6.5). Then, the absorbance spectrum of the denatured sample was recorded and its concentration was calculated considering the theoretical extinction coefficient determined using the amino acid sequence. This concentration, taking into account the protein dilution in the denaturation process, was then used to determine ε^279 at the protein maximum by using the native protein spectrum before denaturation. Difference spectroscopy measurements were carried out in 20 mM PIPES, 10 mM MgCl2, pH 7.0, with saturating concentrations of ligands. Circular dichroism (CD) spectra were recorded using a Chirascan spectropolarimeter (Appl. Phot. Ltd., Leatherhead, Surrey, UK) at 25 °C. […]

The test system of series [4] is CaFADS variants. The series is described as follows: Qualitative detection of RFK, FMNAT and FADpp activities by TLC. The format is biochemical, Corynebacterium ammoniagenes. To be noted: all variants, 200 nM enzyme, 50 μM flavin, 0.2 mM ATP, 10 mM MgCl2, pH 7.0, 30 min and 2 h. The procedure: RFK and FMNAT activities were qualitatively assayed by the incubation of enzymes with substrates and separation of flavins (substrates and products) from reaction mixtures using TLC on Silica Gel SIL-G-25 plates (20 × 20 cm, thickness 0.25 mm) as previously described. […] Reactions were stopped by boiling the preparations for 5 min. Flavin spots were visualized under UV light.

Series [5] deals with Cc1cc2nc3c(=O)[nH]c(=O)nc-3n(C[C@H](O)[C@H](O)[C@H](O)CO)c2cc1C. The series is described as follows: purified protein, by the assay type. The format is biochemical, Corynebacterium ammoniagenes. To be noted: RF varied, saturating ATP, apparent value, 20 mM PIPES, 0.8 mM MgCl2, pH 7.0, 25 °C. The procedure: Reactions were initiated by the addition of ~20 nM of enzyme. After 1 min incubation at 25 °C, the reactions were stopped by boiling the mixtures for 5 min. The composition of flavins in the supernatant was determined using an Alliance HPLC system (Waters, Milford, MA, USA) equipped with a 2707 autosampler and a HSST3 column (4.6 × 150 mm, 3.5 µm, Waters) preceded by a pre-column (4.6 × 20 mm, 3.5 µm, Waters). The chromatography was developed at 1 mL/min with a 6 min isocratic program of methanol 40% (v/v) in 5 mM ammonium acetate (pH 6.0). Detection of flavins was carried out using a 2475 Multi λ fluorescence detector (Waters), excitation wavelength of 470 nm and emission wavelength of 530 nm. […] The flavinic products of the reaction were identified by their retention times and quantified through their corresponding standard curves obtained under the same conditions. Controls containing free flavins in the absence of the enzyme were treated similarly to reaction samples to discard flavin degradation during RFK activity determination. […] In case of inhibition, the experimental data were fitted to a model describing the substrate inhibition of a bi-substrate mechanism. In these situations, errors in apparent Km and kcat (^appKm and ^appkcat) increased with the inhibition constant (Ki) value getting closer to Km^S. Reaction mixtures were evaluated in triplicates, and final results are expressed as the standard error of the fitted value (value ± SE).

The mark [6] stands for this setting: 10 mM MgCl2, pH 7.0, n.d. = no interaction profile was detected.

For the compound `Nc1ncnc2c1ncn2[C@@H]1O[C@H](COP(=O)(O)OP(=O)(O)OP(=O)(O)O)[C@@H](O)[C@H]1O` [ATP, Adenosine 5′-triphosphate], at WT CaFADS [1] (ATP varied, RF at ~80% of maximum activity, apparent value, 20 mM PIPES, 0.8 mM MgCl2, pH 7.0, 25 °C), the kcat was 2.58 ± 0.083 s⁻¹. Also, the Michaelis-Menten constant (Km) at WT CaFADS [1] (read-out: Km^ATP, ATP varied, RF at ~80% of maximum activity, 20 mM PIPES, 0.8 mM MgCl2, pH 7.0, 25 °C) is 28 ± 4 µM. Besides, the “-TΔS” value is 11 ± 2 kcal/mol on P56W CaFADS (pH 7.0, no MgCl2); 15 ± 2 kcal/mol at L98A CaFADS (pH 7.0, no MgCl2); -3.8 ± 0.1 kcal/mol on P58W CaFADS (pH 7.0, no MgCl2); 39 ± 6 kcal/mol at WT CaFADS [2] (pH 7.0, no MgCl2); 33 ± 19 kcal/mol at L98K CaFADS; -3.6 ± 0.2 kcal/mol on P56A/P58A CaFADS (pH 7.0, no MgCl2). Further, the “-TΔS” value on L98W CaFADS (pH 7.0, no MgCl2) turned out to be 26 ± 6 kcal/mol. In addition, the ΔH at P56W CaFADS (pH 7.0, no MgCl2) is -16 ± 3 kcal/mol; at L98A CaFADS (pH 7.0, no MgCl2) it was -20 ± 3 kcal/mol; at P58W CaFADS (pH 7.0, no MgCl2), -2.7 ± 0.1 kcal/mol; at WT CaFADS [2] (pH 7.0, no MgCl2) it was -44 ± 6 kcal/mol; at L98K CaFADS, -39 ± 19 kcal/mol; at P56A/P58A CaFADS (pH 7.0, no MgCl2), -2.8 ± 0.2 kcal/mol. Besides, the ΔH at L98W CaFADS (pH 7.0, no MgCl2) is -32 ± 6 kcal/mol. Moreover, the ΔG at L98A CaFADS (pH 7.0, no MgCl2) is reported as -5.6 ± 0.1 kcal/mol; at P58W CaFADS (pH 7.0, no MgCl2), -6.5 ± 0.1 kcal/mol; on L98K CaFADS, -5.6 ± 0.2 kcal/mol; on P56A/P58A CaFADS (pH 7.0, no MgCl2), -6.4 ± 0.1 kcal/mol.

As for `Cc1cc2nc3c(=O)[nH]c(=O)nc-3n(C[C@H](O)[C@H](O)[C@H](O)COP(=O)(O)OP(=O)(O)OC[C@H]3O[C@@H](n4cnc5c(N)ncnc54)[C@H](O)[C@@H]3O)c2cc1C` [FAD, Riboflavin 5′-adenosine diphosphate], the “-TΔS” value on P56W CaFADS (10 mM MgCl2, pH 7.0) is on record as -6.1 ± 0.1 kcal/mol; at P58W CaFADS (10 mM MgCl2, pH 7.0), -7.0 ± 0.1 kcal/mol; on WT CaFADS [2] (10 mM MgCl2, pH 7.0) it was 18 ± 1 kcal/mol; on P56A/P58A CaFADS (10 mM MgCl2, pH 7.0) it was -7.4 ± 0.1 kcal/mol; at L98W CaFADS (10 mM MgCl2, pH 7.0), -6.9 ± 0.1 kcal/mol. Moreover, the ΔG on P56W CaFADS (10 mM MgCl2, pH 7.0) is -6.9 ± 0.1 kcal/mol; on P58W CaFADS (10 mM MgCl2, pH 7.0), -7.6 ± 0.1 kcal/mol; on P56A/P58A CaFADS (10 mM MgCl2, pH 7.0) it was -7.8 ± 0.1 kcal/mol; on L98W CaFADS (10 mM MgCl2, pH 7.0), -7.4 ± 0.1 kcal/mol. Besides, the ΔH on P56W CaFADS (10 mM MgCl2, pH 7.0) is -0.9 ± 0.1 kcal/mol; at P58W CaFADS (10 mM MgCl2, pH 7.0), -0.56 ± 0.02 kcal/mol; on WT CaFADS [2] (10 mM MgCl2, pH 7.0), -26 ± 1 kcal/mol; at P56A/P58A CaFADS (10 mM MgCl2, pH 7.0), -0.39 ± 0.1 kcal/mol; on L98W CaFADS (10 mM MgCl2, pH 7.0), -0.6 ± 0.1 kcal/mol. Moreover, the “difference spectra on titration with FAD” value with CaFADS variants [3] (saturating FAD) is listed as “hardly produced difference spectra”.

Regarding `Cc1cc2nc3c(=O)[nH]c(=O)nc-3n(C[C@H](O)[C@H](O)[C@H](O)COP(=O)(O)O)c2cc1C` [FMN, Riboflavin 5′-phosphate], the “Kd^FMN lower than WT” value on P56W CaFADS (P56W CaFADS vs WT) is “up to 4 fold”. Besides, the “-TΔS” value at P56W CaFADS (10 mM MgCl2, pH 7.0) is -6.5 ± 0.1 kcal/mol; at L98A CaFADS (setting [6]) it was -7.9 ± 0.1 kcal/mol; at P58W CaFADS (10 mM MgCl2, pH 7.0) it was -7.3 ± 0.1 kcal/mol; on WT CaFADS [2] (10 mM MgCl2, pH 7.0), 15 ± 1 kcal/mol; on L98W CaFADS (10 mM MgCl2, pH 7.0), -7.2 ± 0.1 kcal/mol. For the same compound, the ΔG at P56W CaFADS (10 mM MgCl2, pH 7.0) is on record as -7.9 ± 0.1 kcal/mol; on L98A CaFADS (setting [6]) it was -9.0 ± 0.1 kcal/mol; at P58W CaFADS (10 mM MgCl2, pH 7.0), -8.6 ± 0.1 kcal/mol; at P56A/P58A CaFADS (10 mM MgCl2, pH 7.0), -8.8 ± 0.1 kcal/mol; on L98W CaFADS (10 mM MgCl2, pH 7.0), -8.7 ± 0.1 kcal/mol. Also, the ΔH on P56W CaFADS (10 mM MgCl2, pH 7.0) is on record as -1.4 ± 0.1 kcal/mol; at L98A CaFADS (setting [6]), -1.2 ± 0.1 kcal/mol; at P58W CaFADS (10 mM MgCl2, pH 7.0), -1.3 ± 0.1 kcal/mol; at WT CaFADS [2] (10 mM MgCl2, pH 7.0), -22 ± 1 kcal/mol; on P56A/P58A CaFADS (10 mM MgCl2, pH 7.0), -1.8 ± 0.1 kcal/mol; on L98W CaFADS (10 mM MgCl2, pH 7.0), -1.5 ± 0.1 kcal/mol. Moreover, in the series with CaFADS variants [3] (saturating FMN), the “difference spectra after incubation with FMN” value is reported as “All the variants produced difference spectra”. Further, the “FMNAT activity (transformation of FMN into FAD), qualitative” value in the series on CaFADS variants [4] was “none of the variants was neither capable of catalyzing the transformation of FMN into FAD”.

In the case of “L98A CaFADS (Corynebacterium ammoniagenes; L98A)”, in [5] (other: L98A CaFADS), the Km is given as 1.5 ± 0.7 µM.

Turning to “L98K CaFADS (Corynebacterium ammoniagenes; L98K)”, the Km in series [5] (other: L98K CaFADS) was found to be 4.0 ± 1.1 µM.

Take “L98W CaFADS (Corynebacterium ammoniagenes; L98W)”: the Km in [5] (other: L98W CaFADS) was 1.6 ± 0.6 µM.

Turning to “P56A/P58A CaFADS (Corynebacterium ammoniagenes; P56A/P58A)”, in series [5] (other: P56A/P58A CaFADS), the Km is 0.9 ± 0.4 µM.

For the compound “P56W CaFADS (Corynebacterium ammoniagenes; P56W)”, the Km in [5] (other: P56W CaFADS) stood at 0.4 ± 0.1 µM.

Take “P58W CaFADS (Corynebacterium ammoniagenes; P58W)”: the Km in [5] (other: P58W CaFADS) amounted to 1.3 ± 0.7 µM.

In general, kcat refers to the number of substrate molecules converted per active site and unit of time at saturation. A word on the Km: it is the substrate concentration at which the rate is half of its maximum.
